{"source": "the supplement of paper PMC10307832", "experiment_in_all_cases": "relative viability (nuclei count vs DMSO), 5 days (fraction); higher = more cells survive", "key": {"NCI-H838": {"tested_on": "NCI-H838", "outline": "(§1)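 One day after seeding in 1536-well plates, lung cancer cell lines were dosed by pin tool. Dosing was either single-drug or a fixed anchor-drug dose plus five library-drug doses (not always all listed) in √10 steps. After 5 days, nuclei were stained in one fix-and-stain step and counted on 4× images, and relative viability is the nuclei count of treated wells over that of vehicle wells, given as the median of duplicate plates.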"}, "UMC-11": {"tested_on": "UMC-11", "outline": "as §1"}, "H3255": {"tested_on": "H3255", "outline": "as §1"}, "LC-2-ad": {"tested_on": "LC-2-ad", "outline": "as §1"}, "NCI-H2087": {"tested_on": "NCI-H2087", "outline": "as §1"}, "ChaGo-K-1": {"tested_on": "ChaGo-K-1", "outline": "as §1"}, "HCC-15": {"tested_on": "HCC-15", "outline": "as §1"}, "LCLC-97TM1": {"tested_on": "LCLC-97TM1", "outline": "as §1"}, "LXF-289": {"tested_on": "LXF-289", "outline": "as §1"}, "NCI-H1666": {"tested_on": "NCI-H1666", "outline": "as §1"}, "BEN": {"tested_on": "BEN", "outline": "as §1"}, "HCC-78": {"tested_on": "HCC-78", "outline": "as §1"}, "NCI-H1651": {"tested_on": "NCI-H1651", "outline": "as §1"}, "LU99A": {"tested_on": "LU99A", "outline": "as §1"}, "NCI-H661": {"tested_on": "NCI-H661", "outline": "as §1"}, "NCI-H322M": {"tested_on": "NCI-H322M", "outline": "as §1"}, "PC-3 [JPC-3]": {"tested_on": "PC-3 [JPC-3]", "outline": "as §1"}, "NCI-H596": {"tested_on": "NCI-H596", "outline": "as §1"}, "NCI-H650": {"tested_on": "NCI-H650", "outline": "as §1"}}}
{"compound": "Clc1ccc(Nc2nnc(Cc3ccncc3)c3ccccc23)cc1", "note": "[Vatalanib] + CC(C)C[C@H](NC(=O)[C@H](Cc1ccccc1)NC(=O)c1cnccn1)B(O)O [Bortezomib] (partner 0.002 µM)", "values": [{"measurement": "relative viability", "setting": "NCI-H838; first compound 0.04 µM", "value": 0.973}, {"measurement": "relative viability", "setting": "NCI-H838; first compound 0.1265 µM", "value": 0.99}, {"measurement": "relative viability", "setting": "NCI-H838; first compound 0.4 µM", "value": 0.805}, {"measurement": "relative viability", "setting": "NCI-H838; first compound 1.265 µM", "value": 0.68}, {"measurement": "relative viability", "setting": "NCI-H838; first compound 4 µM", "value": 0.798}, {"measurement": "relative viability", "setting": "UMC-11; first compound 0.04 µM", "value": 0.802}, {"measurement": "relative viability", "setting": "UMC-11; first compound 0.1265 µM", "value": 0.771}, {"measurement": "relative viability", "setting": "UMC-11; first compound 0.4 µM", "value": 0.709}, {"measurement": "relative viability", "setting": "UMC-11; first compound 1.265 µM", "value": 0.717}, {"measurement": "relative viability", "setting": "UMC-11; first compound 4 µM", "value": 0.688}, {"measurement": "relative viability", "setting": "H3255; first compound 0.04 µM", "value": 0.627}, {"measurement": "relative viability", "setting": "H3255; first compound 0.1265 µM", "value": 0.764}, {"measurement": "relative viability", "setting": "H3255; first compound 0.4 µM", "value": 0.494}, {"measurement": "relative viability", "setting": "H3255; first compound 1.265 µM", "value": 0.47}, {"measurement": "relative viability", "setting": "H3255; first compound 4 µM", "value": 0.713}, {"measurement": "relative viability", "setting": "LC-2-ad; first compound 0.04 µM", "value": 0.987}, {"measurement": "relative viability", "setting": "LC-2-ad; first compound 0.1265 µM", "value": 1.01}, {"measurement": "relative viability", "setting": "LC-2-ad; first compound 0.4 µM", "value": 1.17}, {"measurement": "relative viability", "setting": "LC-2-ad; first compound 1.265 µM", "value": 1}, {"measurement": "relative viability", "setting": "LC-2-ad; first compound 4 µM", "value": 0.952}, {"measurement": "relative viability", "setting": "NCI-H2087; first compound 0.04 µM", "value": 1.05}, {"measurement": "relative viability", "setting": "NCI-H2087; first compound 0.1265 µM", "value": 0.744}, {"measurement": "relative viability", "setting": "NCI-H2087; first compound 0.4 µM", "value": 0.92}, {"measurement": "relative viability", "setting": "NCI-H2087; first compound 1.265 µM", "value": 0.917}, {"measurement": "relative viability", "setting": "NCI-H2087; first compound 4 µM", "value": 0.753}, {"measurement": "relative viability", "setting": "ChaGo-K-1; first compound 0.04 µM", "value": 0.936}, {"measurement": "relative viability", "setting": "ChaGo-K-1; first compound 0.1265 µM", "value": 0.938}, {"measurement": "relative viability", "setting": "ChaGo-K-1; first compound 1.265 µM", "value": 0.991}, {"measurement": "relative viability", "setting": "ChaGo-K-1; first compound 4 µM", "value": 1.03}, {"measurement": "relative viability", "setting": "HCC-15; first compound 0.04 µM", "value": 1.15}, {"measurement": "relative viability", "setting": "HCC-15; first compound 0.1265 µM", "value": 1.03}, {"measurement": "relative viability", "setting": "HCC-15; first compound 0.4 µM", "value": 1.03}, {"measurement": "relative viability", "setting": "HCC-15; first compound 1.265 µM", "value": 0.978}, {"measurement": "relative viability", "setting": "HCC-15; first compound 4 µM", "value": 1.04}, {"measurement": "relative viability", "setting": "LCLC-97TM1; first compound 0.04 µM", "value": 0.529}, {"measurement": "relative viability", "setting": "LCLC-97TM1; first compound 0.1265 µM", "value": 0.523}, {"measurement": "relative viability", "setting": "LCLC-97TM1; first compound 0.4 µM", "value": 0.528}, {"measurement": "relative viability", "setting": "LCLC-97TM1; first compound 1.265 µM", "value": 0.31}, {"measurement": "relative viability", "setting": "LCLC-97TM1; first compound 4 µM", "value": 0.769}, {"measurement": "relative viability", "setting": "LXF-289; first compound 0.04 µM", "value": 1.07}, {"measurement": "relative viability", "setting": "LXF-289; first compound 0.1265 µM", "value": 0.976}, {"measurement": "relative viability", "setting": "LXF-289; first compound 0.4 µM", "value": 0.991}, {"measurement": "relative viability", "setting": "LXF-289; first compound 1.265 µM", "value": 0.931}, {"measurement": "relative viability", "setting": "LXF-289; first compound 4 µM", "value": 0.964}, {"measurement": "relative viability", "setting": "NCI-H1666; first compound 0.04 µM", "value": 0.795}, {"measurement": "relative viability", "setting": "NCI-H1666; first compound 0.1265 µM", "value": 0.701}, {"measurement": "relative viability", "setting": "NCI-H1666; first compound 0.4 µM", "value": 0.851}, {"measurement": "relative viability", "setting": "NCI-H1666; first compound 1.265 µM", "value": 0.67}, {"measurement": "relative viability", "setting": "NCI-H1666; first compound 4 µM", "value": 0.733}, {"measurement": "relative viability", "setting": "BEN; first compound 0.04 µM", "value": 0.851}, {"measurement": "relative viability", "setting": "BEN; first compound 0.1265 µM", "value": 0.682}, {"measurement": "relative viability", "setting": "BEN; first compound 0.4 µM", "value": 0.906}, {"measurement": "relative viability", "setting": "BEN; first compound 1.265 µM", "value": 0.665}, {"measurement": "relative viability", "setting": "BEN; first compound 4 µM", "value": 0.806}, {"measurement": "relative viability", "setting": "HCC-78; first compound 0.04 µM", "value": 0.391}, {"measurement": "relative viability", "setting": "HCC-78; first compound 0.1265 µM", "value": 0.493}, {"measurement": "relative viability", "setting": "HCC-78; first compound 0.4 µM", "value": 0.474}, {"measurement": "relative viability", "setting": "HCC-78; first compound 1.265 µM", "value": 0.495}, {"measurement": "relative viability", "setting": "HCC-78; first compound 4 µM", "value": 0.571}, {"measurement": "relative viability", "setting": "NCI-H1651; first compound 0.04 µM", "value": 0.906}, {"measurement": "relative viability", "setting": "NCI-H1651; first compound 0.1265 µM", "value": 0.917}, {"measurement": "relative viability", "setting": "NCI-H1651; first compound 0.4 µM", "value": 0.959}, {"measurement": "relative viability", "setting": "NCI-H1651; first compound 1.265 µM", "value": 0.941}, {"measurement": "relative viability", "setting": "NCI-H1651; first compound 4 µM", "value": 0.969}, {"measurement": "relative viability", "setting": "LU99A; first compound 0.04 µM", "value": 1.19}, {"measurement": "relative viability", "setting": "LU99A; first compound 0.1265 µM", "value": 1.16}, {"measurement": "relative viability", "setting": "LU99A; first compound 0.4 µM", "value": 1.27}, {"measurement": "relative viability", "setting": "LU99A; first compound 1.265 µM", "value": 1.22}, {"measurement": "relative viability", "setting": "LU99A; first compound 4 µM", "value": 1.19}, {"measurement": "relative viability", "setting": "NCI-H661; first compound 0.04 µM", "value": 0.801}, {"measurement": "relative viability", "setting": "NCI-H661; first compound 0.1265 µM", "value": 0.71}, {"measurement": "relative viability", "setting": "NCI-H661; first compound 0.4 µM", "value": 0.882}, {"measurement": "relative viability", "setting": "NCI-H661; first compound 1.265 µM", "value": 0.764}, {"measurement": "relative viability", "setting": "NCI-H661; first compound 4 µM", "value": 0.816}, {"measurement": "relative viability", "setting": "NCI-H322M; first compound 0.04 µM", "value": 1.19}, {"measurement": "relative viability", "setting": "NCI-H322M; first compound 0.1265 µM", "value": 1.31}, {"measurement": "relative viability", "setting": "NCI-H322M; first compound 0.4 µM", "value": 1.33}, {"measurement": "relative viability", "setting": "NCI-H322M; first compound 1.265 µM", "value": 1.28}, {"measurement": "relative viability", "setting": "NCI-H322M; first compound 4 µM", "value": 1.08}, {"measurement": "relative viability", "setting": "PC-3 [JPC-3]; first compound 0.04 µM", "value": 0.785}, {"measurement": "relative viability", "setting": "PC-3 [JPC-3]; first compound 0.1265 µM", "value": 0.828}, {"measurement": "relative viability", "setting": "PC-3 [JPC-3]; first compound 0.4 µM", "value": 0.82}, {"measurement": "relative viability", "setting": "PC-3 [JPC-3]; first compound 1.265 µM", "value": 0.856}, {"measurement": "relative viability", "setting": "PC-3 [JPC-3]; first compound 4 µM", "value": 0.721}, {"measurement": "relative viability", "setting": "NCI-H596; first compound 0.04 µM", "value": 1.2}, {"measurement": "relative viability", "setting": "NCI-H596; first compound 0.1265 µM", "value": 1}, {"measurement": "relative viability", "setting": "NCI-H596; first compound 0.4 µM", "value": 1.01}, {"measurement": "relative viability", "setting": "NCI-H596; first compound 1.265 µM", "value": 1.11}, {"measurement": "relative viability", "setting": "NCI-H596; first compound 4 µM", "value": 1.01}, {"measurement": "relative viability", "setting": "NCI-H650; first compound 0.04 µM", "value": 0.891}, {"measurement": "relative viability", "setting": "NCI-H650; first compound 0.1265 µM", "value": 0.736}, {"measurement": "relative viability", "setting": "NCI-H650; first compound 1.265 µM", "value": 0.6}, {"measurement": "relative viability", "setting": "NCI-H650; first compound 4 µM", "value": 0.812}]}
